Test results as given in US8143249B2 (Gilead Sciences, Inc., priority 2005, dated 2012).

Experiment: Oral pharmacokinetics/bioavailability of prodrugs vs parent (compound 1) in rats, plasma LC/MS/MS
Assay type: in vivo, Sprague Dawley rats
Details: for Cmax: Sprague Dawley
Experimental: The following studies were conducted in order to compare the pharmacokinetics of the parent A2B adenosine receptor antagonist and its corresponding prodrug. The parent compound chosen was the compound of formula A in which R^1 is n-propyl, R^2 is ethyl, R^3 is hydrogen, and R^4 is 3-trifluoromethylphenyl; that is:
The studies were carried out in Sprague Dawley rats. The test compounds were administered orally by gavage to groups of three rats using a single oral dose of the test compound at 2 and 30 mg/kg. All oral doses were prepared either as a suspension in DMSO/ethanol/PEG300/0.1% N-methyl-D-glucamine or as a suspension in 0.5% methylcellulose in water. Blood samples were obtained serially from each rat at 0, 5, 15, 30 min, and then 1, 1.5, 2, 4, 6, 8, and 24 hrs post-dose.
Concentrations of compound 1 and/or the corresponding prodrug in rat plasma were determined by a HPLC tandem mass spectrometric (LC/MS/MS) method. Briefly, 0.1 mL of plasma sample was treated with 0.5 mL of acetonitrile:methanol (9:1, v/v) mixture containing 25 ng of compound 1 having deuterated ethyl at the 3-position in place of ethyl. (Internal Standard, I.S.) to precipitate the protein. The mixture was filtered through a 96-well filter and filtrate was collected and evaporated to dryness on a 96-well plate evaporator. The residue was then reconstituted with 400 μL 20% methanol and subjected to LC/MS/MS analysis. Quantification of compound 1 was achieved by mass spectrometry using Multiple Reaction Monitoring (MRM) mode, monitoring the transitions at m/z 447.1>159.1 for compound 1 and 452.1>159.1 for I.S. The quantification limit of the assay was 0.38 ng/mL for the analysis of the oral dose samples and 10 ng/mL during the analysis of the intravenous dose samples using 0.1 mL of plasma.
Non-compartmental pharmacokinetic parameters were determined using a commercial program WinNonLin Professional, Version 4.1 (Pharsight, Mountain View, Calif.). Plasma concentration at below level of detection was assumed to be zero for the calculation of means and pharmacokinetic parameters.
For oral administration, the maximum concentration (Cmax) and time to reach Cmax (Tmax), AUC(0-1), AUC(0-8) and bioavailability (% F) were determined. Oral bioavailability was determined from the ratio of dose-adjusted AUC(0-8) of the respective oral dose and the mean AUC(0-8) values of the 0.1 and 0.5 mg/kg intravenous doses.
The results are presented below in tabular form. The table provides results obtained by using a suspension of the test compound in a suspension in DMSO/ethanol/PEG300/0.1% N-methyl-D-glucamine in rats.

[1] = unchanged prodrug in rat plasma after single oral gavage dose, suspension in DMSO/ethanol/PEG300/0.1% N-methyl-D-glucamine

Structure (SMILES)	Cmax [1]	Prodrug Mean Dose Adjusted AUC [1]	plasma levels of parent compound 1 following oral dosing, compared with oral dosing of the parent itself (rats, oral, result in words)	Prodrug Mean Cmax [1]	prodrug seen in plasma unmetabolized (rats, oral, result in words)
CCCC(=O)OCn1c(-c2cnn(Cc3cccc(C(F)(F)F)c3)c2)nc2c1c(=O)n(CCC)c(=O)n2CC [Compound 2, [3-ethyl-2,6-dioxo-1-propyl-8-(1-{[3-(trifluoromethyl)phenyl]methyl}pyrazol-4-yl)-1,3,7-trihydropurin-7-yl]methyl butanoate]	< 5 ng/mL	Not detectable	–	–	–
CCCn1c(=O)c2c(nc(-c3cnn(Cc4cccc(C(F)(F)F)c4)c3)n2COC(C)=O)n(CC)c1=O [Compound 3, [3-ethyl-2,6-dioxo-1-propyl-8-(1-{[3-(trifluoromethyl)phenyl]methyl}pyrazol-4-yl)-1,3,7-trihydropurin-7-yl]methyl acetate]	< 5 ng/mL	Not detectable	–	–	–
CCCn1c(=O)c2c(nc(-c3cnn(Cc4cccc(C(F)(F)F)c4)c3)n2COC(=O)C(C)(C)C)n(CC)c1=O [Compound 4, [3-ethyl-2,6-dioxo-1-propyl-8-(1-{[3-(trifluoromethyl)phenyl]methyl}pyrazol-4-yl)-1,3,7-trihydropurin-7-yl]methyl-2,2-dimethylpropanoate]	< 5 ng/mL	Not detectable	–	–	–
CCCn1c(=O)c2c(nc(-c3cnn(Cc4cccc(C(F)(F)F)c4)c3)n2COC(=O)N(C)CCN(C)C)n(CC)c1=O [Compound 5]	–	Not detectable	approximately the same	<5 ng/mL	–
CCCn1c(=O)c2c(nc(-c3cnn(Cc4cccc(C(F)(F)F)c4)c3)n2COP(=O)(O)O)n(CC)c1=O [Compound 6, [3-ethyl-2,6-dioxo-1-propyl-8-(1-{[3-(trifluoromethyl)phenyl]methyl}-pyrazol-4-yl)(1,3,7-trihydropurin-7-yl)]methyl dihydrogen phosphate]	< 5 ng/mL	Not detectable	–	–	detected in the plasma unmetabolized
CCCn1c(=O)c2c(nc(-c3cnn(Cc4cccc(C(F)(F)F)c4)c3)n2COC(=O)NCCN(C)C)n(CC)c1=O [Compound 10]	< 5 ng/mL	Not detectable	–	–	detected in the plasma unmetabolized
